Read-outs that look alike come from different tables or passages of the source.
Assays:
Assay type in all cases: cell-based
[1] = system: mixed cortical cultures from mouse brain; experiment: NMDA-induced cell toxicity in mixed cortical (neuronal-glial) cultures, LDH release (Example 1)
Protocol: Graph B represents the dose-dependent effect of (−)-huperzine A alone (unfilled circles) and in the presence (filled circles) of 10 μM (−)-nicotine. Toxicity was induced by a 10 minute treatment with 75 μM NMDA in the absence or presence of the indicated drugs.
In a first experiment, four samples each containing neuronal-glial cultures from mouse cerebral cortical cultures and a different concentration of (−)-nicotine (ranging from 0 to 100 μM) were treated for 10 minutes with 75 μM of NMDA (commercially available, for example, from Sigma Chemical Co., St. Louis, Mo.) to induce cell death. The cultures were prepared from 15-day-old fetal Swiss-Webster mice, as described in Bruno et al., 1998 Neuroscience 85:751-7 (hereinafter “Bruno et al.”), incorporated herein by reference. Neuronal cells were plated in 96-well plates on a layer of confluent glial cells at a density of 200,000 cells/well in EMEM medium containing 5% fetal bovine serum and 5% horse serum. Then the NMDA was removed replacing the medium with fresh serum-free culture medium and cell death was assessed for each sample by measuring the amount of lactate dehydrogenase (“LDH”) released into the medium according to the procedure described in Bruno et al. The data are summarized in FIG. 1, Graph A, as lines connecting the values (represented by unfilled squares) of % of NMDA toxicity (i.e., % cell death) at the corresponding concentration of (−)-nicotine in μM.
In a second experiment, six samples each containing neuronal-glial cultures from mouse brain and a different concentration of (−)-huperzine A (ranging from 0 to 10 μM) were treated with 75 μM of NMDA, using the above-described procedure. Then cell death was assessed for each sample using the procedure described above. The data are summarized in FIG. 1, Graph B, as lines connecting the values (represented by unfilled circles) of % of NMDA toxicity at the corresponding concentration of (−)-huperzine A in μM.
In a third experiment, six samples each containing neuronal-glial cultures from mouse brain, a different concentration of (−)-huperzine A (ranging from 0 to 10 μM), and a fixed concentration of 10 μM of (−)-nicotine were treated with 75 μM NMDA, using the procedure described above. Then cell death was assessed for each sample as above. The data are summarized in FIG. 1, Graph B, as lines connecting the values (represented by black-filled circles) of % of NMDA toxicity at the corresponding μM-concentration of(−)-huperzine A.

[2] = system: cultures of granule neurons prepared from mouse cerebellum; experiment: β-amyloid-peptide-induced cell toxicity in cerebellar granule neurons, LDH release (Example 2)
Protocol: Toxicity was induced by a 48 hour treatment with 25 μM β-amyloid peptide in the absence or presence of the indicated drugs.
In a first experiment, four samples each containing cultures of granule neurons prepared from mouse cerebellum and a different concentration of (−)-nicotine (ranging from 0 to 100 μM) were treated for 48 hours with 25 μM β-amyloid peptide (“AP”) (commercially available, for example, from Bachem, Inc., Torrance, Calif.) to induce cell death, according to the procedure described in Copani et al., 1995 Mol Pharmacol 47:890-7 (hereinafter “Copani et al.”).
Then cell death was assessed by measuring the amount of LDH released into the medium according to the procedure described in Bruno et al. The data are summarized in FIG. 2, Graph A, as lines connecting the values (represented by unfilled squares) of % of β-amyloid-peptide-induced toxicity (i.e., % cell death) at the corresponding concentration of nicotine in μM.
In a second experiment, four samples each containing cultures of granule neurons prepared from mouse cerebellum and a different concentration of (−)-huperzine A (ranging from 0 to 10 μM), were treated for 48 hours with 25 μM AP, (25-35 fragment) according to the above-described procedure. Then cell death was assessed as described above. The data are summarized in FIG. 2, Graph B, as lines connecting the values (represented by unfilled circles) of % of β-amyloid-peptide-induced toxicity at a particular concentration of (−)-huperzine A in μM.
In a third experiment, 4 samples each containing cultures of granule neurons prepared from mouse cerebellum, a different concentrations of (−)-huperzine A (ranging from 0 to 10 μM), and a fixed concentration of 10 μM of (−)-nicotine were treated for 48 hours with 25 μM AP using the procedure described above. Then cell death was assessed as above. The data are summarized in FIG. 2, Graph B, as lines connecting the values (represented by black-filled circles) of % of β-amyloid-peptide-induced toxicity at a particular μM-concentration of (−)-huperzine A.

[3] = system: neuronal-glial cultures from mouse cerebral cortical cultures; experiment: NMDA-induced cell toxicity in mixed cortical cultures, low drug concentrations, LDH release (Example 3)
[4] = drug alone, 75 μM NMDA for 10 minutes, FIG. 1
[5] = drug alone, nicotine 0-100 μM, huperzine A 0-10 μM
[6] = drug alone, 25 μM β-amyloid peptide for 48 hours, FIG. 2

SMILES	NMDA-induced cell death [1]	cell death (% of NMDA toxicity) at maximal neuroprotection [1]	maximal level of neuroprotection [1]	neuroprotection [1]	cell death (% of β-amyloid-peptide-induced toxicity) at maximal neuroprotection [2]	maximal level of neuroprotection [2]	neuroprotection [2]	toxicity induced by 25 μM AP [2]	neuroprotective effect [3]	cell death (% of NMDA toxicity) at maximal neuroprotection [1, 4]	maximal level of neuroprotection [1, 4]	NMDA-induced cell death [1, 5]	cell death (% of β-amyloid-peptide-induced toxicity) at maximal neuroprotection [2, 6]	maximal level of neuroprotection [2, 6]	toxicity induced by 25 μM AP [2, 5]	neuroprotective effect ([3]; (−)-huperzine A alone, 1-1000 nM, 100 μM NMDA for 10 minutes)
CN1CCCC1c1cccnc1 (single isomer, unassigned; (-)) [(−)-nicotine]	decreased in a dose-dependent manner	45%	about 55%	about 40%	45%	about 55%	about 20%	decreased in a dose-dependent manner	little effect							
C/C=C1\[C@H]2C=C(C)C[C@]1(N)c1ccc(=O)[nH]c1C2 [(−)-huperzine A]										55%	about 45%	decreased in a dose-dependent manner	70%	about 30%	decreased in a dose-dependent manner	no significant neuroprotective effects
